Reference: PMC10977697 (PLOS ONE, 2024)
Where no end group is shown, it is not given here.

Assays:
HtrA1 = format: binding, human; conditions: ratio of signal for target protein over BSA background
Fz7CRD-Fc = format: binding; conditions: for S/N: ratio of signal for target protein over BSA background; for ELISA: spot phage ELISA signal, DCP displayed on M13 p8

Row | Sequence | S/N (HtrA1) | S/N (Fz7CRD-Fc) | ELISA (Fz7CRD-Fc)
1 | AFDCLGQCGRCDFHKLQCVFWHWYYCNSSCTR (also: bicyclic or more (positions not given here)) [HtrA1 AVR9 84] | 8.5 |  | 
2 | AFDCLGQCGRCDFHKLQCVIQQMRWKAQPDGYCNSSCTR (also: bicyclic or more (positions not given here)) [HtrA1 AVR9 37] | 9.7 |  | 
3 | AFDCLGQCGRCDFHKLQCVKQVMATLWSMYCNSSCTR (also: bicyclic or more (positions not given here)) [HtrA1 AVR9 39] | 9.9 |  | 
4 | AFDCLGQCGRCDFHKLQCVLVEPSGWYQVISWKYCNSSCTR (also: bicyclic or more (positions not given here)) [Fz7CRD-Fc AVR9 2] |  | 5.0 | 0.29
5 | AFDCLGQCGRCDFHKLQCVLWHQWVKWYVYCNSSCTR (also: bicyclic or more (positions not given here)) [HtrA1 AVR9 68] | 8.9 |  | 
6 | AFDCLGQCGRCDFHKLQCVLWTVANMQHYYCNSSCTR (also: bicyclic or more (positions not given here)) [HtrA1 AVR9 85] | 6.5 |  | 
7 | AFDCLGQCGRCDFHKLQCVMMRLLARWVFKFYCNSSCTR (also: bicyclic or more (positions not given here)) [HtrA1 AVR9 52] | 13.2 |  | 
8 | AFDCLGQCGRCDFHKLQCVQYAYRWLMRQYCNSSCTR (also: bicyclic or more (positions not given here)) [HtrA1 AVR9 55] | 4.1 |  | 
9 | AFDCLGQCGRCDFHKLQCVRWSIDAIIIWYCNSSCTR (also: bicyclic or more (positions not given here)) [HtrA1 AVR9 42] | 12.1 |  | 
10 | AFDCLGQCGRCDFHKLQCVRYLIKYSIMWMTYCNSSCTR (also: bicyclic or more (positions not given here)) [HtrA1 AVR9 26] | 15.1 |  | 
11 | AFDCLGQCGRCDFHKLQCVVFQIIYQAVNYCNSSCTR (also: bicyclic or more (positions not given here)) [HtrA1 AVR9 88] | 9.5 |  | 
12 | AFDCLGQCGRCDFHKLQCVVTIIRKMMLWYCNSSCTR (also: bicyclic or more (positions not given here)) [HtrA1 AVR9 31] | 19.0 |  | 
13 | AFDCLGQCGRCDFHKLQCVWRWMHQYCNSSCTR (also: bicyclic or more (positions not given here)) [HtrA1 AVR9 2] | 22.7 |  | 
14 | AFDCLGQCGRCDFHKLQCVWRYIQKMRYCNSSCTR (also: bicyclic or more (positions not given here)) [HtrA1 AVR9 89] | 14.9 |  | 
15 | AFDCLGQCGRCDFHKLQCVWSIYVKFWYCNSSCTR (also: bicyclic or more (positions not given here)) [HtrA1 AVR9 4] | 21.2 |  | 
16 | AFDCLGQCGRCDFHKLQCVYRQFWMVKFGWQPGYCNSSCTR (also: bicyclic or more (positions not given here)) [HtrA1 AVR9 10] | 15.2 |  | 
17 | GCGWLPELKLWCKQDSDCLAGCVCEDMIDCG (also: bicyclic or more (positions not given here)) [Fz7CRD-Fc EET I-II 38] |  | 15.1 | 1.32
18 | GCGWLPELKLWCKQDSDCLAGCVCEDMIDCG (also: bicyclic or more (positions not given here)) [Fz7CRD-Fc EET I-II 42] |  | 36.2 | 2.79
19 | GCGWWFKQWFCKQDSDCLAGCVCGPNGFCG (also: bicyclic or more (positions not given here)) [Fz7CRD-Fc EET I-II 19] |  | 3.8 | 1.83
20 | GCGYWYITWFCKQDSDCLAGCVCGPNGFCG (also: bicyclic or more (positions not given here)) [Fz7CRD-Fc EET I-II 30] |  | 3.0 | 2.64
21 | GCHSVHSMCKQDSDCLAGCVCYWFYGCG (also: bicyclic or more (positions not given here)) [HtrA1 EET I-II 1] | 11.8 |  | 
22 | GCPRILMRCKQDSDCLAGCVCWMPVLCV (also: bicyclic or more (positions not given here)) [HtrA1 EET I-II 19] | 3.1 |  | 
23 | GCREMLGNWVCKRFRLSSWLCLWSNGFCGT [HtrA1 EET I-II 41] | 11.8 |  | 
24 | GCTLYMYLCKQDSDCLAGWMFHHCG [Fz7CRD-Fc EET I-II 26] |  | 28.9 | 1.79
25 | GCTLYMYLCKQDSDCLAGWMFHHCG [Fz7CRD-Fc EET I-II 55] |  | 29.3 | 2.81
26 | GCVHVIREWWCKQDSDSSWFVCGPNGFCG [Fz7CRD-Fc EET I-II 17] |  | 26.4 | 2.69
27 | GCWWMNVRTRQGCKQDSDCLAGCVCGPNGFCG (also: bicyclic or more (positions not given here)) [HtrA1 EET I-II 25] | 2.8 |  | 

Row | Sequence | S/N (HtrA1) | S/N (Fz7CRD-Fc) | ELISA (Fz7CRD-Fc)
28 | GPTQSAFGECGGIGYSGPTVCASGTTCQVLSPMFSFCLPGAS (also: bicyclic or more (positions not given here)) [Fz7CRD-Fc CBD 57] |  | 28.7 | 2.41
29 | GPTQSAFGECGGIGYSGPTVCASGTTCQVLSPYWSFCLPGAS (also: bicyclic or more (positions not given here)) [Fz7CRD-Fc CBD 15] |  | 38.4 | 2.76
30 | GPTQSAGGWCGGIGYSGPTVCASGTTCQVLTPMESICLPGAS (also: bicyclic or more (positions not given here)) [Fz7CRD-Fc CBD 29] |  | 5.7 | 0.36
31 | GPTQSAWGWCGGIGYSGPTVCASGTTCQVLSPYESYCLPGAS (also: bicyclic or more (positions not given here)) [Fz7CRD-Fc CBD 53] |  | 4.3 | 0.32
32 | GPTQSHYGQCGGRGYFGTMYCASGTTCQFKWRRDSQCLPGAS (also: bicyclic or more (positions not given here)) [HtrA1 CBD 74] | 22.8 |  | 
33 | GPTQSHYGQCGGSGYWGLFMCASGTTCQSVTMTVSQCLPGAS (also: bicyclic or more (positions not given here)) [HtrA1 CBD 54] | 5.6 |  | 
34 | GPTQSHYGQCGGWGYTGWYQCASGTTCQGPRSRLSQCLPGAS (also: bicyclic or more (positions not given here)) [HtrA1_CBDwt46] | 25.9 |  | 
35 | GPTQSIWGECGGIGYSGPTVCASGTTCQVLTPFYSFCLPGAS (also: bicyclic or more (positions not given here)) [Fz7CRD-Fc CBD 14] |  | 15.7 | 1.18
36 | GPTQSKYGVCGGIGYSGPTVCASGTTCQVLYPGYSLCLPGAS (also: bicyclic or more (positions not given here)) [Fz7CRD-Fc CBD 72] |  | 37.9 | 2.80
37 | GPTQSLWGECGGIGYSGPTVCASGTTCQVLSPEYSFCLPGAS (also: bicyclic or more (positions not given here)) [Fz7CRD-Fc CBD 18] |  | 16.4 | 1.75
38 | GPTQSMFGECGGIGYSGPTVCASGTTCQVLSPFYSFCLPGAS (also: bicyclic or more (positions not given here)) [Fz7CRD-Fc CBD 47] |  | 30.4 | 2.59
39 | GPTQSMWGECGGIGYSGPTVCASGTTCQVLSPFYSFCLPGAS (also: bicyclic or more (positions not given here)) [Fz7CRD-Fc CBD 56] |  | 3.7 | 0.27
40 | GPTQSVYGYCGGIGYSGPTVCASGTTCQVLFPGHSFCLPGAS (also: bicyclic or more (positions not given here)) [Fz7CRD-Fc CBD 23] |  | 20.9 | 2.78
41 | WIPCISAALGCSCKNKVCYALNNMVQFLYIHHCGESCV (also: bicyclic or more (positions not given here)) [HtrA1 CirculinA 66] | 12.7 |  | 
42 | WIPCISAALGCSCKNKVCYFFHKLMYYMCGESCV (also: bicyclic or more (positions not given here)) [HtrA1 CirculinA 24] | 17.7 |  | 
43 | WIPCISAALGCSCKNKVCYFMTQHIRWFVKCGESCV (also: bicyclic or more (positions not given here)) [HtrA1 CirculinA 91] | 26.8 |  | 
44 | WIPCISAALGCSCKNKVCYHFQHWVQMNKCGESCV (also: bicyclic or more (positions not given here)) [HtrA1 CirculinA 82] | 10.4 |  | 
45 | WIPCISAALGCSCKNKVCYILNRSCGESCV (also: bicyclic or more (positions not given here)) [HtrA1 CirculinA 40] | 8.0 |  | 
46 | WIPCISAALGCSCKNKVCYIVILTTPCGESCV (also: bicyclic or more (positions not given here)) [HtrA1 CirculinA 73] | 8.4 |  | 
47 | WIPCISAALGCSCKNKVCYMYYYIMGQNLMNTCGESCV (also: bicyclic or more (positions not given here)) [HtrA1 CirculinA 48] | 24.1 |  | 
48 | WIPCISAALGCSCKNKVCYQVWQHIFKCGESCV (also: bicyclic or more (positions not given here)) [HtrA1 CirculinA 67] | 15.4 |  | 
49 | WIPCISAALGCSCKNKVCYVATMVVHWVCGESCV (also: bicyclic or more (positions not given here)) [HtrA1 CirculinA 34] | 16.8 |  | 
50 | WIPCISAALGCSCKNKVCYYAGKIYSWQAQLLCGESCV (also: bicyclic or more (positions not given here)) [HtrA1 CirculinA 93] | 8.4 |  | 
51 | WIPCISAALGCSCKNKVCYYMWHVHSLICGESCV (also: bicyclic or more (positions not given here)) [HtrA1 CirculinA 36] | 9.6 |  | 
52 | WIPCISAALGCSCKNKVCYYTILPISYYWHLVCGESCV (also: bicyclic or more (positions not given here)) [HtrA1 CirculinA 45] | 8.2 |  | 
53 | WIPCISAALGCSCKNKVCYYVMKYCGESCV (also: bicyclic or more (positions not given here)) [HtrA1 CirculinA 17] | 13.7 |  | 
